The record followed here is ChEMBL document CHEMBL6092158, “Green synthesis of neuroprotective spirocyclic chalcone derivatives and their role in protecting against traumatic optic nerve injury” (Eur J Med Chem, 2024).

The source made the active and inactive calls. The rule behind the calls is not given here.

Series [1] concerns R28. Description: Cytoprotective activity against hydrogen peroxide-induced cytotoxicity in rat R28 cells assessed as increase in cell viability at 10 uM preincubated for 24 hrs followed by incubation with H2O2 for 24 hrs by MTT assay. Format: functional, cell-based. (In general: Tetrazolium dyes change colour on reduction, which living cells bring about.)
In series [2] the test system is R28. The series can be described thus: Cytoprotective activity against glutamate-induced cytotoxicity in rat R28 cells assessed as increase in cell viability at 10 uM incubated for 24 hrs in presence of glutamate by MTT assay. Type of series: functional, cell-based.
Series [3] in a line: Induction of apoptosis in rat R28 cells assessed as early apoptotic cells incubated for 24 hrs by AnnexinV-FITC/PI staining based flow cytometry (reference value: 1.53%). Format: toxicity, cell-based. The settings on record: r28, 24 h. For orientation: In flow cytometry, cells or beads pass a laser one at a time.
Series [4] in a line: Inhibition of glutamate-induced apoptosis in rat R28 cells assessed as late apoptotic cells incubated for 24 hrs by AnnexinV-FITC/PI staining based flow cytometry (reference value: 3.47%). Type of series: functional. The arrangement: scale not given: the % may be the effect or the level left.
The test system of series [5] is Mus musculus. The series can be described thus: Neuroprotective activity against optic nerve crush C57BL/6J mouse model assessed as increase in P1-N2 wave amplitude of optic nerve at 1 ug/ul administered into vitreous cavity immediately after ONC surgery and measured on day 7 post-surgery by F-EVP based electrophysiological analysis. Type of series: functional, organism-based. The settings on record: dose 1.0 µg/microL, route ivt, time 7.0 day.

The nature of series [6]: Inhibition of glutamate-induced apoptosis in rat R28 cells assessed as necrotic cells incubated for 24 hrs by AnnexinV-FITC/PI staining based flow cytometry (reference value: 0.68%). Type of series: functional. More on the design: scale not given: the % may be the effect or the level left.
Series [7] can be described thus: Acute toxicity in C57BL/6J mouse assessed as spleen weight at 500 mg/kg, ip and measured on day 14. Particulars: in vivo, 336 h, time 14 day. Type of series: organism-based.
A short description of series [8]: Acute toxicity in C57BL/6J mouse assessed as lung damage at 500 mg/kg, ip and measured on day 14 by Hematoxylin-Eosin staining based analysis. Type of series: organism-based. Particulars: in vivo, 336 h, time 14 day.
Series [9] can be described thus: Effect on reactive oxygen species generation in rat R28 cells at 5 uM incubated for 24 hrs by DCFH-DA staining based flow cytometry (reference value: 0.49%). Type of series: toxicity, cell-based. Particulars: r28, 24 h.
For series [10], the system named is Mus musculus. Description: Inhibition of glutamate-induced JNK phosphorylation in retinal tissue of optic nerve crush C57BL/6J mouse model at 1 ug/ul administered into vitreous cavity immediately after ONC surgery and measured on day 7 post-surgery by western blot analysis. Format: functional. Particulars: dose 1.0 µg/microL, route ivt, time 7.0 day. On the technique in general: A western blot detects proteins with antibodies after separation by electrophoresis.

A short description of series [11]: Antioxidant activity assessed as DPPH radical scavenging activity at 100 uM by DPPH assay. Format: functional.
The nature of series [12]: Acute toxicity in C57BL/6J mouse assessed as animal activity level at 500 mg/kg, ip. Type of series: organism-based. Particulars: in vivo.
A short description of series [13]: Acute toxicity in C57BL/6J mouse assessed as body weight at 500 mg/kg, ip measured for 14 days. Type of series: organism-based. Particulars: in vivo, 336 h, time 14 day.
Series [14] can be described thus: Induction of apoptosis in rat R28 cells assessed as necrotic cells incubated for 24 hrs by AnnexinV-FITC/PI staining based flow cytometry (reference value: 2.54%). Format: toxicity, cell-based. Particulars: r28, 24 h.
Series [15] relates to R28. Description: Antioxidant activity in rat R28 cells assessed as inhibition of glutamate-induced oxidative stress by measuring decrease in intracellular MDA level. Format: functional, cell-based.
Series [16] can be described thus: Acute toxicity in C57BL/6J mouse assessed as ALT level in serum at 500 mg/kg, ip and measured on day 14. Format: organism-based. The settings on record: in vivo, 336 h, time 14 day.
Series [17] in a line: Induction of apoptosis in rat R28 cells assessed as late apoptotic cells incubated for 24 hrs by AnnexinV-FITC/PI staining based flow cytometry (reference value: 4.59%). Type of series: toxicity, cell-based. The settings on record: r28, 24 h.
The nature of series [18]: Acute toxicity in C57BL/6J mouse assessed as kidney damage at 500 mg/kg, ip and measured on day 14 by Hematoxylin-Eosin staining based analysis. Type of series: organism-based. Particulars: in vivo, 336 h, time 14 day.
Series [19] is described as follows: Acute toxicity in C57BL/6J mouse assessed as lungs weight at 500 mg/kg, ip and measured on day 14. The settings on record: in vivo, 336 h, time 14 day. Format: organism-based.
Series [20] concerns R28. Description: Inhibition of glutamate-induced apoptosis in rat R28 cells assessed as decrease in number of PI-positive cells at 5 uM incubated for 24 hrs by Hoechst33342/PI staining based fluorescence microscopic analysis. Format: functional, cell-based.
The nature of series [21]: Acute toxicity in C57BL/6J mouse assessed as heart damage at 500 mg/kg, ip and measured on day 14 by Hematoxylin-Eosin staining based analysis. Particulars: in vivo, 336 h, time 14 day. Format: organism-based.
A short description of series [22]: Antioxidant activity assessed as DPPH radical scavenging activity at 20 uM by DPPH assay. Type of series: functional.
A short description of series [23]: Inhibition of glutamate-induced apoptosis in rat R28 cells assessed as viable cells incubated for 24 hrs by AnnexinV-FITC/PI staining based flow cytometry (reference value: 28.81%). Format: functional.
Series [24] has as its system Cortical neurone. The series can be described thus: Cytoprotective activity against oxidative glutamate-induced cytotoxicity in rat primary cortical neuronal cells assessed as increase in cell viability at 1.25 uM incubated for 24 hrs by CCK8 assay. Format: functional, cell-based.
The subject of series [25] is Mus musculus. Description: Neuroprotective activity against optic nerve crush C57BL/6J mouse model assessed as increase in inner plexiform layer complex at 1 ug/ul administered into vitreous cavity immediately after ONC surgery and measured on day 7 post-surgery by optical coherence examination analysis. Type of series: functional, organism-based. Particulars: dose 1.0 µg/microL, route ivt, time 7.0 day.

The nature of series [26]: Acute toxicity in C57BL/6J mouse assessed as liver damage at 500 mg/kg, ip and measured on day 14 by Hematoxylin-Eosin staining based analysis. Type of series: organism-based. The settings on record: in vivo, 336 h, time 14 day.
For series [27], the system named is Mus musculus. The series can be described thus: Neuroprotective activity against optic nerve crush C57BL/6J mouse model at 1 ug/ul administered into vitreous cavity immediately after ONC surgery and measured on day 7 post-surgery by optical coherence examination analysis. Format: functional, organism-based. Particulars: dose 1.0 µg/microL, route ivt, time 7.0 day.

Series [28] has as its system Mus musculus. The series can be described thus: Neuroprotective activity against optic nerve crush C57BL/6J mouse model assessed as increase in ganglion cell layer complex at 1 ug/ul administered into vitreous cavity immediately after ONC surgery and measured on day 7 post-surgery by optical coherence examination analysis. Format: functional, organism-based. Particulars: dose 1.0 µg/microL, route ivt, time 7.0 day.

The subject of series [29] is Mus musculus. The series can be described thus: Neuroprotective activity against optic nerve crush C57BL/6J mouse model assessed as restoration of P1 latency of optic nerve at 1 ug/ul administered into vitreous cavity immediately after ONC surgery and measured on day 7 post-surgery by […] based electrophysiological analysis. Type of series: functional, organism-based. Particulars: dose 1.0 µg/microL, route ivt, time 7.0 day.

The nature of series [30]: Cytotoxicity against rat R28 cells assessed as effect on cell viability by MTT assay. Type of series: toxicity, cell-based.
The nature of series [31]: Acute toxicity in C57BL/6J mouse assessed as heart weight at 500 mg/kg, ip and measured on day 14. Format: organism-based. Particulars: in vivo, 336 h, time 14 day.
Series [32] in a line: Acute toxicity in C57BL/6J mouse assessed as AST level in serum at 500 mg/kg, ip and measured on day 14. Type of series: organism-based. The settings on record: in vivo, 336 h, time 14 day.
Series [33] in a line: Antioxidant activity in rat R28 cells assessed as inhibition of glutamate-induced reactive oxygen species generation at 5 uM incubated for 24 hrs by DCFH-DA staining based flow cytometry (reference value: 16.61%). Format: functional. The arrangement: scale not given: the % may be the effect or the level left.
The test system of series [34] is Cortical neurone. Description: Antioxidant activity in rat primary cortical neuron assessed as inhibition of glutamate-induced reactive oxygen species generation at 5 uM incubated for 24 hrs by DCFH-DA staining based immunofluorescence analysis. Type of series: functional, cell-based.
The subject of series [35] is Mus musculus. Description: Effect on total JNK level in retinal tissue of optic nerve crush C57BL/6J mouse model at 1 ug/ul administered into vitreous cavity immediately after ONC surgery and measured on day 7 post-surgery by western blot analysis. Format: functional. Particulars: dose 1.0 µg/microL, route ivt, time 7.0 day.
Series [36] in a line: Inhibition of glutamate-induced apoptosis in rat R28 cells assessed as early apoptotic cells incubated for 24 hrs by AnnexinV-FITC/PI staining based flow cytometry (reference value: 69.04%). Type of series: functional. More on the design: scale not given: the % may be the effect or the level left.
Series [37] in a line: Acute toxicity in C57BL/6J mouse assessed as spleen damage at 500 mg/kg, ip and measured on day 14 by Hematoxylin-Eosin staining based analysis. Format: organism-based. Particulars: in vivo, 336 h, time 14 day.
Series [38] can be described thus: Acute toxicity in C57BL/6J mouse assessed as kidney weight at 500 mg/kg, ip and measured on day 14. Type of series: organism-based. The settings on record: in vivo, 336 h, time 14 day.
Series [39] relates to R28. The series can be described thus: Antioxidant activity in rat R28 cells assessed as inhibition of glutamate-induced reactive oxygen species generation by measuring decrease in fluorescence intensity at 5 uM incubated for 24 hrs by DCFH-DA staining based immunofluorescence analysis. Format: functional, cell-based.
A short description of series [40]: Acute toxicity in C57BL/6J mouse assessed as retinal damage at 500 mg/kg, ip and measured on day 14 by Hematoxylin-Eosin staining based analysis. Particulars: in vivo, 336 h, time 14 day. Type of series: organism-based.
Series [41] relates to R28. Description: Cytoprotective activity against oxidative glutamate-induced cytotoxicity in rat R28 cells assessed as increase in cell viability at 1.25 to 2.5 uM incubated for 24 hrs by MTT assay. Type of series: functional, cell-based. The settings on record: dose 1.25-2.5 µM.
A short description of series [42]: Induction of apoptosis in rat R28 cells assessed as viable cells incubated for 24 hrs by AnnexinV-FITC/PI staining based flow cytometry (reference value: 91.34%). Type of series: toxicity, cell-based. Particulars: read-out: Activity.
In series [43] the test system is Mus musculus. Description: Neuroprotective activity against optic nerve crush C57BL/6J mouse model assessed as increase in retinal nerve fibre layer thickness complex at 1 ug/ul administered into vitreous cavity immediately after ONC surgery and measured on day 7 post-surgery by optical coherence examination analysis. The settings on record: dose 1.0 µg/microL, route ivt, time 7.0 day. Type of series: functional, organism-based.

Series [44] is described as follows: Acute toxicity in C57BL/6J mouse assessed as liver weight at 500 mg/kg, ip and measured on day 14. Format: organism-based. Particulars: in vivo, 336 h, time 14 day.

As to `CN1C[C@H](c2ccc(O)c(O)c2)[C@@H](C(=O)c2cc(C(F)(F)F)cc(C(F)(F)F)c2)[C@]12C(=O)Nc1ccccc12`, the outcome in the series on R28 [1] and in the series on R28 [2] was inactive.
As to `CN1C[C@H](c2ccc(O)c(O)c2)[C@@H](C(=O)c2cccc(Cl)c2)[C@]12C(=O)Nc1ccccc12`, the result in the series on R28 [1] and with R28 [2] was Active.
Take `CN1C[C@H](c2ccc(O)c(O)c2)[C@@H](C(=O)c2cc(F)cc(F)c2)[C@]12C(=O)Nc1ccccc12`: the Activity in series [3] was 1.94%; in [4], 6.05%; in series [6], 2.54%; in series [7], “Non-toxic”; in series [8], “Non-toxic”; in series [9], 2.05%. Further, the Activity result in series [12] is given as “Non-toxic”; in series [13] it was “Non-toxic”; in series [14], 2.13%; in series [16] it was “Non-toxic”; in series [17], 8.4%; in series [18], “Non-toxic”. Moreover, the Activity result is recorded as “Non-toxic” in series [19]; “Non-toxic” in series [21]; 89.77% in series [23]; “Non-toxic” in [26]; “Toxic” in [30]; “Non-toxic” in series [31]. The Activity result in [32] is recorded as “Non-toxic”; in series [33], 4.62%; in [36] it was 1.63%; in series [37] it was “Non-toxic”; in [38], “Non-toxic”; in series [40] it was “Non-toxic”. Besides, the Activity entry in series [44] is given as “Non-toxic”. Besides, the outcome (in the series with Mus musculus [5]; in the series with R28 [15]; in series [22]; in the series on Cortical neurone [24]; with Mus musculus [25]; in the series with Mus musculus [27]) was Active. Further, the outcome in the series on Mus musculus [28], in the series with Mus musculus [29], in the series with R28 [1], with R28 [2], in the series on Cortical neurone [34] and in the series with R28 [39] was Active. Besides, the outcome in the series with R28 [41] and in the series with Mus musculus [43] was Active. For the same compound, the inhibition entry in the series with Mus musculus [10] and in the series on R28 [20] was “Active” in each case. The inhibition (usually how much of the control response was suppressed) in series [11] was found to be 95%. Further, in the series with Mus musculus [35], the result was inactive. Further, the viability at 24 h in series [42] came out at 87.5%.
